Patent US12162861B2, “Dopamine D3 receptor selective antagonists/partial agonists; method of making; and use thereof” (THE UNITED STATES OF AMERICA, AS REPRESENTED BY THE …, priority 2016, dated 2024)
Entries after “also recorded” stand apart in the source; their conditions may differ.

Legend:
[1] = molecular target: T1, human D2R (Homo sapiens, UniProt P14416); experiment: Radioligand competition binding, [3H]N-methylspiperone, D2R; conditions: Table 1A; HEK 293 cells transfected with hD2LR, [3H]N-methylspiperone; read-out: D2R K ± SEM
T1 construct: expressed in transfected cells; host or cells: HEK293
T1 sequence (P14416 whole entry): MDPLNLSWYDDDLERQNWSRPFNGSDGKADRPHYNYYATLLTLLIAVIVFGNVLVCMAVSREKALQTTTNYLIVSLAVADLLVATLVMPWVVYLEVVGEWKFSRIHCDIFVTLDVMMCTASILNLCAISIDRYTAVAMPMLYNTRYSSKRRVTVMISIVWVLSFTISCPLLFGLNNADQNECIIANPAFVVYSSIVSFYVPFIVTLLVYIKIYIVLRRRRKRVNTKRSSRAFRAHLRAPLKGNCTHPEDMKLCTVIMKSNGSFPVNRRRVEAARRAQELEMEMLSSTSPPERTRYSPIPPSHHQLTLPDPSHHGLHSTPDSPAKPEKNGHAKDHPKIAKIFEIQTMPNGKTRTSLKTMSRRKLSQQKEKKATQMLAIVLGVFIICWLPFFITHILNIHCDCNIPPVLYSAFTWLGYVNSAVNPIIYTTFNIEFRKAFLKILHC
Description: Binding at dopamine D2-like receptors was determined using previously described methods. (Chen et al. “Tranylcypromine substituted cis-hydroxycyclobutylnaphthamides as potent and selective dopamine D(3) receptor antagonists.” J. Med. Chem. 2014, 57, 4962-4968) Membranes were prepared from HEK293 cells expressing human D2R, D3R or D4R, grown in a 50:50 mix of DMEM and Ham's F12 culture media, supplemented with 20 mM HEPES, 2 mM L-glutamine, 0.1 mM non-essential amino acids, 1× antibiotic/antimycotic, 10% heat-inactivated fetal bovine serum, and 200 μg/mL hygromycin (Life Technologies, Grand Island, NY) and kept in an incubator at 37° C. and 5% CO2. Upon reaching 80-90% confluence, cells were harvested using pre-mixed Earle's Balanced Salt Solution (EBSS) with 5 μM EDTA (Life Technologies) and centrifuged at 3000 rpm for 10 min at 21° C. The supernatant was removed and the pellet was resuspended in 10 mL hypotonic lysis buffer (5 mM MgCl2·6H2O, 5 mM Tris, pH 7.4 at 4° C.) and centrifuged at 20,000 rpm for 30 min at 4° C. The pellet was then resuspended in fresh EBSS buffer made from 8.7 g/L Earle's Balanced Salts without phenol red (US Biological, Salem, MA), 2.2 g/L sodium bicarbonate, pH to 7.4. A Bradford protein assay (Bio-Rad, Hercules, CA) was used to determine the protein concentration and membranes were diluted to 500 μg/mL and stored in a −80° C. freezer for later use.
Radioligand competition binding experiments were conducted using thawed membranes. Test compounds were freshly dissolved in 30% DMSO and 70% H2O to a stock concentration of 100 μM. To assist the solubilization of free-base compounds, 10 μl of glacial acetic acid was added along with the DMSO. Each test compound was then diluted into 13 half-log serial dilutions using 30% DMSO vehicle; final test concentrations ranged from 10 μM to 10 pM. Previously frozen membranes were diluted in fresh EBSS to a 100 μg/mL (for hD2R or hD3R) or 200 μg/mL (hD4R) stock for binding. Radioligand competition experiments were conducted in glass tubes containing 300 μl fresh EBSS buffer with 0.2 mM sodium metabisulfite, 50 μl of diluted test compound, 100 μl of membranes (10 μg total protein for hD2R or hD3R, 20 μg total protein for hD4R), and 50 μl of [^3H]N-methylspiperone (0.4 nM final concentration; Perkin Elmer). Nonspecific binding was determined using 10 μM butaclamol (Sigma-Aldrich, St. Louis, MO) and total binding was determined with 30% DMSO vehicle. All compound dilutions were tested in triplicate and the reaction incubated for one hour at room temperature. The reaction was terminated by filtration through Whatman GF/B filters, presoaked for one hour in 0.5% polyethylenimine, using a Brandel R48 filtering manifold (Brandel Instruments, Gaithersburg, MD). The filters were washed 3 times with 3 mL of ice cold EBSS buffer and transferred to scintillation vials. 3 mL CytoScint liquid scintillation cocktail (MP Biomedicals, Solon, OH) was added and vials were counted using a Perkin Elmer Tri-Carb 2910 TR liquid scintillation counter (Waltham, MA). IC50 values for each compound were determined from dose-response curves and Ki values were calculated using the Cheng-Prusoff equation; these analyses were performed using GraphPad Prism version 5.00 for Windows (GraphPad Software, San Diego, CA). Reported Ki values were determined from least three independent experiments.

[2] = Mouse microsomal stability assay; type: in vitro ADME; conditions: mouse liver microsomes, Phase I, 10 μM compound, 0.5 mg/mL microsomes
Description: Mouse Microsomal Stability Assay. […] The reaction was carried out with 100 mM potassium phosphate buffer, pH 7.4, in the presence of NADPH regenerating system, (compound final concentration was 10 μM; 0.5 mg/mL microsomes). Positive controls for phase I metabolism (testosterone) were also evaluated. Compound disappearance was monitored over time using a liquid chromatography and tandem mass spectrometry (LC/MS/MS) method. All reactions were sampled in triplicate. Chromatographic analysis was performed using an Accela ultra high-performance system consisting of an analytical pump and an autosampler coupled with a TSQ Vantage mass spectrometer (Thermo Fisher Scientific Inc., Waltham, MA). […] The mobile phase used was composed of 0.1% formic acid in acetonitrile and 0.1% formic acid in H2O with gradient elution, starting with 10% (organic) linearly increasing to 99% up to 2 min, maintaining at 99% (2-2.5 min) and reequilibrating to 10% by 2.7 min. The total run time for each analyte was 4.5 min.

[3] = Sucrose self-administration; type: in vivo; conditions: pretreatment (±)-29 15 and 25 mg/kg, (±)-19 1 and 5 mg/kg
[4] = tested on: squirrel monkeys; experiment: THC priming-induced reinstatement of drug seeking in squirrel monkeys; type: in vivo, squirrel monkey (Saimiri sciureus); conditions: squirrel monkeys, 1, 3, and 10 mg/kg i.m., FIG. 9
Description: Reinstatement studies: In order to separately determine the reinstatement effects of a priming injection and drug-associated cues, we use two different extinction protocols (described below) that allow us to isolate the effects of these independent variables.
Priming-induced reinstatement: Before priming-induced reinstatement testing began, monkeys were allowed to self-administer the training dose of THC until they reached a stable baseline (5-10 sessions). In subsequent extinction sessions, lever presses led to i.v. saline infusions plus the visual cues that had been associated previously with THC. After at least two sessions of extinction, when responding had reached a low, stable level, a priming injection of THC (0.04 mg/kg i.v.) was given immediately before the next session, during which responding (FR10) continued to produce only i.v. saline injections and the discrete visual cues. […] A non-contingent i.v. injection of vehicle was also given before each extinction session as a control for the drug priming treatment.
Δ^9-tetrahydrocannabinol (THC, NIDA Drug Supply Program, Bethesda, MD, USA) was dissolved in a vehicle containing 1% Tween 80, 1% ethanol, and saline to obtain stock solution (0.4 mg/ml) and further diluted with saline. In the reinstatement tests, THC was injected i.v. (1 ml/kg) immediately before the session.

Ki [1]: 17.1 ± 5.09 µM
% remaining over 1 h [2]: > 80%
Structure (SMILES): CCc1cc(Cl)c(OC)c(N2CCN(CC(O)CCNC(=O)c3cc4ccccc4[nH]3)CC2)c1 (racemic) [Compound 29, N-(4-(4-(3-chloro-5-ethyl-2-methoxyphenyl)piperazin-1-yl)-3-hydroxybutyl)-1H-indole-2-carboxamide]
sucrose self-administration [3]: no significant effects on sucrose self-administration
THC-induced reinstatement to drug seeking [4]: attenuates THC-induced reinstatement to drug seeking; also recorded: blocked THC-induced reinstatement of drug seeking
THC-induced reinstatement to drug seeking ([4]; listed as (±)-29): attenuation of THC-induced reinstatement to drug seeking
